According to ChEMBL document CHEMBL1201862, “PubChem BioAssay data set” (2004):
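96-well plates; 48 h exposure; 5 concentrations. Endpoints by linear interpolation between flanking doses. Not reached: highest tested concentration assigned. The concentration for 50% growth inhibition is given as GI50.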 Activity calls are given as the source filed them. Cut-off read from the data, not from the text of the source: active = GI50 up to about 1.1 µM and inactive = higher.

Columns and labels:
Assay in all cases: DTP human tumour cell line panel, 48 h
SF-539 = system: SF-539
M14 = system: M14
SK-MEL-28 = system: SK-MEL-28
OVCAR-4 = system: OVCAR-4
NCI-H23 = system: NCI-H23
HOP-92 = system: HOP-92
EKVX = system: EKVX
OVCAR-5 = system: OVCAR-5
HT-29 = system: HT-29
KM12 = system: KM12
OVCAR-8 = system: OVCAR-8
NCI-H226 = system: NCI-H226
MCF7 = system: MCF7
U-251 = system: U-251
OVCAR-3 = system: OVCAR-3
SF-295 = system: SF-295
SNB-75 = system: SNB-75
SK-OV-3 = system: SK-OV-3
IGROV-1 = system: IGROV-1
K562 = system: K562

Measured: GI50

Nc1n[c-](N)[n+](=O)c(N)c1NCO
inactive: SF-539 > 100 µM | M14 > 100 µM | SK-MEL-28 > 100 µM | OVCAR-4 > 100 µM | NCI-H23 > 100 µM | HOP-92 > 100 µM | EKVX > 100 µM | OVCAR-5 > 100 µM | HT-29 > 100 µM | KM12 > 100 µM | OVCAR-8 > 100 µM | NCI-H226 > 100 µM | MCF7 > 100 µM | U-251 > 100 µM | OVCAR-3 > 100 µM | SF-295 > 100 µM | SNB-75 > 100 µM | SK-OV-3 > 100 µM | IGROV-1 > 100 µM | K562 > 100 µM

c1ccc(NN/N=N/c2ccc(-c3nc4ccccc4[nH]3)cc2)cc1
inactive: SF-539 77.6 µM | M14 10.6 µM | SK-MEL-28 35.8 µM | OVCAR-4 23.4 µM | NCI-H23 32.5 µM | HOP-92 60.7 µM | EKVX 39.4 µM | OVCAR-5 > 100 µM | HT-29 25 µM | KM12 19.5 µM | OVCAR-8 36 µM | NCI-H226 36.9 µM | MCF7 15.3 µM | U-251 40.4 µM | OVCAR-3 15.6 µM | SF-295 25.6 µM | SNB-75 23.8 µM | SK-OV-3 > 100 µM | IGROV-1 27.8 µM | K562 8.43 µM

N#Cc1c(=O)c2cccnc2n2c1[nH]c1ccccc12
inactive: SF-539 55.8 µM | M14 90.2 µM | SK-MEL-28 > 100 µM | OVCAR-4 > 100 µM | NCI-H23 38.7 µM | HOP-92 22.6 µM | EKVX 85.9 µM | OVCAR-5 > 100 µM | HT-29 > 100 µM | KM12 80.7 µM | OVCAR-8 66.7 µM | NCI-H226 66.5 µM | MCF7 > 100 µM | U-251 38.6 µM | OVCAR-3 78 µM | SF-295 49.3 µM | SNB-75 50.5 µM | SK-OV-3 52.8 µM | IGROV-1 > 100 µM | K562 > 100 µM

C[N+](C)([O-])CCOc1cc2c(c3ccccc13)-c1ccccc1C2=O
inactive: SF-539 15.1 µM | SK-MEL-28 18.3 µM | OVCAR-4 3.92 µM | NCI-H23 21.5 µM | HOP-92 7.66 µM | EKVX 25.9 µM | OVCAR-5 24 µM | HT-29 7.46 µM | KM12 13.6 µM | OVCAR-8 6.27 µM | NCI-H226 15.7 µM | MCF7 11.7 µM | U-251 13.3 µM | OVCAR-3 11.7 µM | SF-295 4.63 µM | SNB-75 17.5 µM | SK-OV-3 35.4 µM | IGROV-1 19.1 µM | K562 15.8 µM

CN(/N=C1\C(=O)Nc2ccccc21)c1ccccc1
inactive: SF-539 41.2 µM | M14 74.6 µM | SK-MEL-28 > 100 µM | OVCAR-4 95.3 µM | NCI-H23 74.6 µM | HOP-92 22.5 µM | EKVX 29.8 µM | OVCAR-5 45.6 µM | HT-29 54.3 µM | KM12 29.6 µM | OVCAR-8 26.4 µM | NCI-H226 > 100 µM | MCF7 15.3 µM | U-251 74.8 µM | OVCAR-3 33.7 µM | SF-295 40.7 µM | SNB-75 2.32 µM | SK-OV-3 > 100 µM | IGROV-1 36.6 µM | K562 > 100 µM

Cc1cnc(/N=c2\sc(C)cn2-c2ncc(C)s2)s1
inactive: SF-539 > 100 µM | M14 > 100 µM | SK-MEL-28 > 100 µM | OVCAR-4 > 100 µM | NCI-H23 > 100 µM | HOP-92 > 100 µM | EKVX > 100 µM | OVCAR-5 > 100 µM | HT-29 > 100 µM | KM12 > 100 µM | OVCAR-8 > 100 µM | NCI-H226 > 100 µM | MCF7 > 100 µM | U-251 > 100 µM | OVCAR-3 > 100 µM | SF-295 > 100 µM | SNB-75 71.3 µM | SK-OV-3 > 100 µM | IGROV-1 > 100 µM | K562 > 100 µM

COc1ccc(/C(C#N)=C/c2ccc(OC)c(OC)c2)cc1
inactive: SF-539 > 100 µM | M14 > 100 µM | SK-MEL-28 > 100 µM | OVCAR-4 69.8 µM | NCI-H23 > 100 µM | HOP-92 > 100 µM | EKVX > 100 µM | OVCAR-5 > 100 µM | HT-29 > 100 µM | KM12 > 100 µM | OVCAR-8 > 100 µM | NCI-H226 > 100 µM | MCF7 > 100 µM | U-251 > 100 µM | OVCAR-3 > 100 µM | SF-295 > 100 µM | SNB-75 56.9 µM | SK-OV-3 > 100 µM | IGROV-1 > 100 µM | K562 > 100 µM
